Key:
[1] = biological target: human histamine H1 receptor (Homo sapiens, UniProt P35367); test: In vitro human histamine H1 receptor binding experiment ([3H]pyrilamine); conditions: HEK293A cells stably expressing human histamine H1 receptor, [3H]pyrilamine 3 nmol/L, room temperature 60 minutes
Method: Recombinant human histamine H1 receptor plasmid (prepared by Invitrogen) was transfected to HEK293A cells with Lipofectamine 2000 (manufactured by Invitrogen). Cells stably expressing human histamine H1 receptor were screened with Geneticin (manufactured by Invitrogen). The cells were continued to be cultured using a Dulbecco's Modified Eagle Medium containing 10% fetal bovine serum, 0.1 mmol/L MEM Non-Essential Amino Acids Solution, 2 mmol/L L-glutamine and 0.7 mg/mL Geneticin in a 5% CO2 incubator at 37° C. The cells stably expressing human histamine H1 receptor were prepared using 50 mmol/L Tris-HCl (pH 7.5) (hereinafter referred to as buffer) containing 0.1% bovine serum albumin, so as to have a concentration of 3×10^6 cells/mL, to give a cell sample preparation. Fifty microliters of the buffer, 50 μl of a test substance solution at various concentrations, and 50 μL of [^3H]pyrilamine solution (final concentration: 3 nmol/L) were added to each of the wells on the 96-well plate, and stirred, and 100 μL of the cell sample preparation was then added thereto (at a concentration of 3×10^5 cells/well) to initiate the reaction.
The cells were incubated at room temperature for 60 minutes, and then filtered on UniFilter GF/C plate (manufactured by Packard) immersed in 0.5% polyethyleneimine using a cell harvester (IH-110, manufactured by INNOTECH CORPORATION), to stop the reaction, and the plate was washed with the buffer. The plate after washing was sufficiently dried, and 20 μL of a scintillator (MaxiLight, manufactured by Hidex) was added thereto, and count per minute (cpm) was measured with a multi-labeled microplate reader (Plate Chameleo II, manufactured by Hidex). The nonspecific binding was cpm in a case where 30 μmol/L pyrilamine was added. The experiments were carried out at n=3, and at least repeated 3 times.

cerebral H1 receptor = biological target: T1, cerebral H1 receptor (Mus musculus, UniProt P70174); test: Murine cerebral H1 receptor occupying content (ex vivo); format: in vivo; conditions: for ED50: ICR male mouse, oral administration, brain excised after 1 hour, 3H-pyrilamine binding in brain homogenate, larger = lower brain transfer, read-out: ID50 (the source's name); for ID50 (mg/kg)/ ED50 (mg/kg): ID50 of cerebral receptor binding test (Table 20) divided by ED50 of vascular hyperpermeability test (Table 19)
T1 construct: the entire brain, except for cerebellum and medulla oblongatae, was rapidly excised; from tissue; host or cells: brain homogenate (without cerebellum and medulla oblongata) of orally dosed ICR male mice
T1 sequence (P70174 whole entry): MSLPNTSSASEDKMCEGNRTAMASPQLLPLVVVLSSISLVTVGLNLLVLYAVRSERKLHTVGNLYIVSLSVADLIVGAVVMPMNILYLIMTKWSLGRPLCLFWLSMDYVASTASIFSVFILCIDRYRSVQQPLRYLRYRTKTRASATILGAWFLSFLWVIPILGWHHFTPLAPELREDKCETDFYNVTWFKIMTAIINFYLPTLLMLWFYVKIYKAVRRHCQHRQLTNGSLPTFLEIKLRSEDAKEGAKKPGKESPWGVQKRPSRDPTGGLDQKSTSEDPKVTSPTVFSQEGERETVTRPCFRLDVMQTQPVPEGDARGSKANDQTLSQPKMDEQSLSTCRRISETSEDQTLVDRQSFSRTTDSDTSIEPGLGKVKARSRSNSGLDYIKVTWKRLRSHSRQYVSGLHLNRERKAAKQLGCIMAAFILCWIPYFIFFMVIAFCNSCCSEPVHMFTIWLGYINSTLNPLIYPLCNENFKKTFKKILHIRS
Method: A 6-week-old ICR male mouse was previously fed for one week or more by allowing the mouse to take a solid feed and tap water ad libitum, under the environment setting of a temperature of 22° C., humidity of 55% and an artificial illumination of 12 hours a day, and the mouse was fasted overnight to be used for the experiment. A substance to be tested was dissolved with water for injection or suspended in 0.5% carboxymethyl cellulose solution, and the solution or suspension was orally administered to the mouse (dose volume: 0.1 mL/10 g body weight). After 1 hour from the oral administration, the mouse was decapitated, and the entire brain, except for cerebellum and medulla oblongatae, was rapidly excised. The excised brain tissue was homogenized with Polytron (manufactured by Kinematica) in an ice-cooled 50 mmol/L phosphate buffered saline (pH 7.4, 100 mg/1.9 mL).
To a test tube for reaction (TPX-Tube) were added 180 μL of the brain homogenate, and 10 μL of ^3H-pyrilamine solution (final concentration: 2 nmol/L) and 10 μL of a non-labeled pyrilamine solution (final concentration: 200 μmol/L) or a 50 mmol/L phosphate buffered saline, and the mixture was incubated at room temperature for 45 minutes, and 2.0 mL of an ice-cooled, 50 mmol/L phosphate buffered saline was then added thereto to stop the reaction. The reaction mixture was filtered with a GF/B filter (manufactured by […]), and the […] was placed in a vial and dried overnight at 60 degrees. After drying, 10 mL of a scintillator (AL-1, toluene-based, manufactured by DOJINDO LABORATORIES) was added to the product, and the disintegration per minute (dpm) was measured with a liquid scintillation counter (manufactured by Packard, U.S.A., TRI-CARB 2700TR) (5 minutes/vial).

[2] = tested on: histamine-induced vascular hyperpermeability reaction; test: Rat histamine-induced vascular hyperpermeability reaction (in vivo antihistamine action); conditions: SD male rat, oral administration 1 hour before intracutaneous histamine, leaked Evans Blue pigment
Method: An SD male rat (SPF) of 180 g in weight was previously fed for one week or more by allowing the rat to take a solid feed and tap water ad libitum, under the environment setting of a temperature of 22° C., humidity of 55% and an artificial illumination of 12 hours a day (light phase 8 am to 8 pm), and the rat was fasted overnight to be used for the experiment. Histamine•dihydrochloride (hereinafter referred to as histamine) and Evans Blue were used by dissolving each in physiological saline upon use. A substance to be tested was dissolved in water for injection or suspended in 0.5% carboxymethyl cellulose sodium, and the rat was orally administered with the solution or suspension (dose volume: 5 mL/kg body weight). After 1 hour from the administration, the physiological saline and the histamine solution were each intracutaneously injected to two locations (20 μg/0.05 ml/location) each on a back part of the rat of which hair was sheared with an electric clipper while anesthetizing with an ether. A 0.5% Evans Blue-containing physiological saline was injected intravenously to the tail of the rat (1 mL/200 g body weight) immediately before the intracutaneous injection of the histamine.
After 30 minutes, the animal was decapitated, and allowed to bleed lethally, and the skin was removed to measure an amount of leaked pigment in the blue-stained portion. The measurement of the amount of leaked pigment was carried out as follows. Skins of the pigment leaking site were cut out at two locations, 1 mL of a 2 mol/L aqueous potassium hydroxide solution was added thereto in a test tube, and the test tube was allowed to stand overnight at 37° C. to dissolve. Thereafter, 6 mL of a 1:3 mixed solution of 0.67 mol/L phosphoric acid and acetone was added to the solution, and the mixture was vigorously shaken for 10 minutes. Thereafter, the mixture was filtered, and the absorbance of the filtrate at 620 nm was measured. The absorbance obtained from the two locations of the sites injected with physiological saline, as blank value, was used for a compensation. The amount of leaked pigment was calculated from the calibration curve of Evans Blue at 620 nm.

Chain of human histamine H1 receptor (P35367 whole entry): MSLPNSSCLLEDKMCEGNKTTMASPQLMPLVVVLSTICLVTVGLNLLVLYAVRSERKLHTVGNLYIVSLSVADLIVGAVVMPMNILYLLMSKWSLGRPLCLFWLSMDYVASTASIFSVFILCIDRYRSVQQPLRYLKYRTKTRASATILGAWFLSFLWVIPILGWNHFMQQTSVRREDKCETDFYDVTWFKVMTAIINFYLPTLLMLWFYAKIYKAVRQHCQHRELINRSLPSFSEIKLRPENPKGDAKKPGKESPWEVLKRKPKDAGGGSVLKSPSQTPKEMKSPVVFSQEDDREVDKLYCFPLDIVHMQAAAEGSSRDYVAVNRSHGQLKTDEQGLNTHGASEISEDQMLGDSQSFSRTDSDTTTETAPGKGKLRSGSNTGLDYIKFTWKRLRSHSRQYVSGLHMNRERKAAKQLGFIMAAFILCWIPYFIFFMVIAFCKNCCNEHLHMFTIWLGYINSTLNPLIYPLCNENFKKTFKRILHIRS

ED50 (cerebral H1 receptor) | ID50 (mg/kg)/ ED50 (mg/kg) (cerebral H1 receptor) | SMILES | IC50 [1] | ED50 [2]
55.1 mg/kg | 33.8 | CN1CCC(=C2c3ccccc3CCc3sc(C(=O)NCCO)cc32)CC1 [Compound 27, N-(2-Hydroxyethyl) [4-(1-methylpiperidin-4-ylidene)-9,10-dihydro-4H-1-thiabenzo[f]azulen-2-yl]carboxamide] | 0.0528 µM | 1.63 mg/kg
33.9 mg/kg | 33.9 | CN1CCC(=C2c3ccccc3CCc3sc(CNC(N)=O)cc32)CC1 [Compound 49, 2-Ureidomethyl-4-(1-methylpiperidin-4-ylidene)-9,10-dihydro-4H-1-thiabenzo[f]azulene] | 0.0325 µM | ~1 mg/kg
3.2 mg/kg | 355.6 | CN1CCC(=C2c3cc(CCCC(=O)O)ccc3OCc3ccsc32)CC1 [Compound 124, 4-[4-(1-Methylpiperidin-4-ylidene)-4,10-dihydro-9-oxa-3-thiabenzo[f]azulen-6-yl]butyric acid] | 0.0467 µM | 0.009 mg/kg
8 mg/kg | 181.8 | CCCN1CCC(=C2c3cc(CC(=O)O)ccc3OCc3ccsc32)CC1 [Compound 130, [4-(1-Propylpiperidin-4-ylidene)-4,10-dihydro-9-oxa-3-thiabenzo[f]azulen-6-yl]acetic acid] | 0.0784 µM | 0.044 mg/kg
23 mg/kg | 76.7 | CC(=O)CCCN1CCC(=C2c3cc(CCCC(=O)O)ccc3OCc3ccsc32)CC1 [Compound 188, 4-{4-[1-(4-Oxopentyl)piperidin-4-ylidene]-4,10-dihydro-9-oxa-3-thiabenzo[f]azulen-6-yl}butyric acid] |  | ~0.3 mg/kg
63.8 mg/kg | 204.5 | CC(=O)CCN1CCC(=C2c3cc(CC(=O)O)ccc3OCc3ccsc32)CC1 [Compound 192, {4-[1-(3-Oxobutyl)piperidin-4-ylidene]-4,10-dihydro-9-oxa-3-thiabenzo[f]azulen-6-yl}acetic acid] |  | 0.312 mg/kg
4.5 mg/kg | 450.0 | CSCCCN1CCC(=C2c3cc(CC(=O)O)ccc3OCc3ccsc32)CC1 [Compound 199, {4-[1-(3-Methylsulfanylpropyl)piperidin-4-ylidene]-4,10-dihydro-9-oxa-3-thiabenzo[f]azulen-6-yl}acetic acid] |  | ~0.01 mg/kg
> 200 mg/kg | >476.2 | O=C(O)CCc1cc2c(s1)C=Cc1ccccc1C2=C1CCNCC1 [Compound 209, 3-(4-Piperidin-4-ylidene-4H-1-thiabenzo[f]azulen-2-yl)propionic acid] |  | 0.42 mg/kg

The remaining lines, values behind:

SMILES | ED50 (cerebral H1 receptor) | ID50 (mg/kg)/ ED50 (mg/kg) (cerebral H1 receptor) | IC50 [1] | ED50 [2]
CN1CCC(=C2c3ccccc3CCc3cc(C=CC(=O)O)sc32)CC1 [Compound 15, 3-[4-(1-Methylpiperidin-4-ylidene)-9,10-dihydro-4H-3-thiabenzo[f]azulen-2-yl]acrylic acid] | 5.6 mg/kg | 31.1 | 0.0268 µM | 0.18 mg/kg
CN1CCC(=C2c3ccccc3OCc3cc(CC(=O)O)sc32)CC1.Cl [Compound 58, [4-(1-Methylpiperidin-4-ylidene)-4,10-dihydro-9-oxa-3-thiabenzo[f]azulen-2-yl]acetic acid hydrochloride] | 205 mg/kg | 263.1 | 0.0693 µM | 0.78 mg/kg
COC(=O)Cc1ccc2c(c1)C(=C1CCN(CCO)CC1)c1sccc1CO2.Cl [Compound 118, Methyl {4-[1-(2-hydroxyethyl)piperidin-4-ylidene]-4,10-dihydro-9-oxa-3-thiabenzo[f]azulen-6-yl}acetate hydrochloride] | 24.3 mg/kg | 50.6 | 0.0236 µM | 0.48 mg/kg
CCN1CCC(=C2c3cc(CC(=O)OC)ccc3OCc3ccsc32)CC1.Cl [Compound 127, Methyl[4-(1-ethylpiperidin-4-ylidene)-4,10-dihydro-9-oxa-3-thiabenzo[f]azulen-6-yl]acetate hydrochloride] | 9.84 mg/kg | 98.4 | 0.0082 µM | ~0.1 mg/kg
CCCN1CCC(=C2c3cc(CC(=O)OC)ccc3OCc3ccsc32)CC1.Cl [Compound 129, Methyl[4-(1-propylpiperidin-4-ylidene)-4,10-dihydro-9-oxa-3-thiabenzo[f]azulen-6-yl]acetate hydrochloride] | 40.5 mg/kg | 460.2 | 0.0227 µM | 0.088 mg/kg
COC(=O)Cc1ccc2c(c1)C(=C1CCN(C(C)C)CC1)c1sccc1CO2.Cl [Compound 131, Methyl[4-(1-isopropylpiperidin-4-ylidene)-4,10-dihydro-9-oxa-3-thiabenzo[f]azulen-6-yl]acetate hydrochloride] | 9.2 mg/kg | 92.0 | 0.0323 µM | ~0.1 mg/kg
COC(=O)Cc1ccc2c(c1)C(=C1CCN(CCCO)CC1)c1sccc1CO2.Cl [Compound 138, Methyl {4-[1-(3-hydroxypropyl)piperidin-4-ylidene]-4,10-dihydro-9-oxa-3-thiabenzo[f]azulen-6-yl}acetate hydrochloride] | 65.4 mg/kg | 139.1 | 0.026 µM | 0.47 mg/kg
CC(OC(=O)Cc1ccc2c(c1)C(=C1CCNCC1)c1sccc1CO2)OC(=O)OC1CCCCC1.Cl (centres unmarked) [Compound 180, 1-Cyclohexyloxycarbonyloxyethyl (4-piperidin-4-ylidene-4,10-dihydro-9-oxa-3-thiabenzo[f]azulen-6-yl)acetate hydrochloride] | > 200 mg/kg | >129.0 |  | 1.55 mg/kg
CN1CCC(=C2c3cc(SC(C)(C)C(=O)O)ccc3OCc3ccsc32)CC1.Cl [Compound 190, 2-Methyl-2-[4-(1-methylpiperidin-4-ylidene)-4,10-dihydro-9-oxa-3-thiabenzo[f]azulen-6-ylsulfanyl]propionic acid hydrochloride] | 73.2 mg/kg | 174.7 |  | 0.419 mg/kg
